# From paper PMC3694426 (Clinical cancer research : an official journal of the …, 2013)
# Entries after “also recorded” stand apart in the source; their conditions may differ.
# Test: phase I dose escalation: DLTs, MTD and treatment-emergent adverse events
# Format: in vivo, human
# Conditions: for patients who experienced DLTs: modified DLT criteria
smiles,measurement,setting,value
CC1=C2C[C@H]3[C@@H](CC[C@@H]4C[C@H](NS(C)(=O)=O)CC[C@@]43C)[C@@H]2CC[C@@]2(C1)O[C@@H]1C[C@H](C)CN[C@H]1[C@H]2C [IPI-926],DLTs per total patients treated,20 mg QD,0/1
same,DLTs per total patients treated,30 mg QD,0/1
same,DLTs per total patients treated,40 mg QD,0/1
same,DLTs per total patients treated,60 mg QD,0/1
same,DLTs per total patients treated,90 mg QD,0/1
same,"ALT elevation (lab), treatment-emergent adverse event","130 mg (n = 56), Grade 1–2",40 (71) n (%)
same,"AST elevation (lab), treatment-emergent adverse event","130 mg (n = 56), Grade 1–2",41 (73) n (%)
same,"Alopecia, treatment-emergent adverse event","130 mg (n = 56), Grade 1–2",17 (30) n (%)
same,"Decreased appetite, treatment-emergent adverse event","130 mg (n = 56), Grade 1–2",12 (21) n (%)
same,"Diarrhea, treatment-emergent adverse event","130 mg (n = 56), Grade 1–2",15 (27) n (%)
same,"Dysgeusia, treatment-emergent adverse event","130 mg (n = 56), Grade 1–2",6 (11) n (%)
same,"Fatigue, treatment-emergent adverse event","130 mg (n = 56), Grade 1–2",29 (52) n (%)
same,"Muscle spasms, treatment-emergent adverse event","130 mg (n = 56), Grade 1–2",11 (20) n (%)
same,"Nausea, treatment-emergent adverse event","130 mg (n = 56), Grade 1–2",23 (41) n (%)
same,"Thrombocytopenia (lab), treatment-emergent adverse event","130 mg (n = 56), Grade 1–2",12 (21) n (%)
same,"Vomiting, treatment-emergent adverse event","130 mg (n = 56), Grade 1–2",11 (20) n (%)
same,"ALT elevation (lab), treatment-emergent adverse event","130 mg (n = 56), Grade ≥3",4 (7) n (%)
same,"AST elevation (lab), treatment-emergent adverse event","130 mg (n = 56), Grade ≥3",2 (4) n (%)
same,"Alopecia, treatment-emergent adverse event","130 mg (n = 56), Grade ≥3",0 (0) n (%)
same,"Decreased appetite, treatment-emergent adverse event","130 mg (n = 56), Grade ≥3",0 (0) n (%)
same,"Diarrhea, treatment-emergent adverse event","130 mg (n = 56), Grade ≥3",0 (0) n (%)
same,"Dysgeusia, treatment-emergent adverse event","130 mg (n = 56), Grade ≥3",1 (2) n (%)
same,"Fatigue, treatment-emergent adverse event","130 mg (n = 56), Grade ≥3",3 (5) n (%)
same,"Hemoglobin (lab), treatment-emergent adverse event","130 mg (n = 56), Grade ≥3",2 (4) n (%)
same,"Muscle spasms, treatment-emergent adverse event","130 mg (n = 56), Grade ≥3",1 (2) n (%)
same,"Nausea, treatment-emergent adverse event","130 mg (n = 56), Grade ≥3",0 (0) n (%)
same,"Thrombocytopenia (lab), treatment-emergent adverse event","130 mg (n = 56), Grade ≥3",3 (5) n (%)
same,"Vomiting, treatment-emergent adverse event","130 mg (n = 56), Grade ≥3",0 (0) n (%)
same,DLTs per total patients treated,130 mg QD,0/56
same,"ALT elevation (lab), treatment-emergent adverse event","160 mg (n = 18), Grade 1–2",10 (55) n (%)
same,"AST elevation (lab), treatment-emergent adverse event","160 mg (n = 18), Grade 1–2",14 (78) n (%)
same,"Alopecia, treatment-emergent adverse event","160 mg (n = 18), Grade 1–2",4 (22) n (%)
same,"Decreased appetite, treatment-emergent adverse event","160 mg (n = 18), Grade 1–2",5 (28) n (%)
same,"Diarrhea, treatment-emergent adverse event","160 mg (n = 18), Grade 1–2",2 (11) n (%)
same,"Dysgeusia, treatment-emergent adverse event","160 mg (n = 18), Grade 1–2",4 (22) n (%)
same,"Fatigue, treatment-emergent adverse event","160 mg (n = 18), Grade 1–2",8 (44) n (%)
same,"Hemoglobin (lab), treatment-emergent adverse event","160 mg (n = 18), Grade 1–2",12 (66) n (%)
same,"Muscle spasms, treatment-emergent adverse event","160 mg (n = 18), Grade 1–2",6 (33) n (%)
same,"Nausea, treatment-emergent adverse event","160 mg (n = 18), Grade 1–2",6 (33) n (%)
same,"Thrombocytopenia (lab), treatment-emergent adverse event","160 mg (n = 18), Grade 1–2",4 (22) n (%)
same,"Vomiting, treatment-emergent adverse event","160 mg (n = 18), Grade 1–2",6 (33) n (%)
same,"ALT elevation (lab), treatment-emergent adverse event","160 mg (n = 18), Grade ≥3",5 (28) n (%)
same,"AST elevation (lab), treatment-emergent adverse event","160 mg (n = 18), Grade ≥3",2 (11) n (%)
same,"Alopecia, treatment-emergent adverse event","160 mg (n = 18), Grade ≥3",0 (0) n (%)
same,"Decreased appetite, treatment-emergent adverse event","160 mg (n = 18), Grade ≥3",0 (0) n (%)
same,"Diarrhea, treatment-emergent adverse event","160 mg (n = 18), Grade ≥3",1 (6) n (%)
same,"Dysgeusia, treatment-emergent adverse event","160 mg (n = 18), Grade ≥3",1 (6) n (%)
same,"Fatigue, treatment-emergent adverse event","160 mg (n = 18), Grade ≥3",3 (17) n (%)
same,"Hemoglobin (lab), treatment-emergent adverse event","160 mg (n = 18), Grade ≥3",1 (6) n (%)
same,"Muscle spasms, treatment-emergent adverse event","160 mg (n = 18), Grade ≥3",0 (0) n (%)
same,"Nausea, treatment-emergent adverse event","160 mg (n = 18), Grade ≥3",0 (0) n (%)
same,"Thrombocytopenia (lab), treatment-emergent adverse event","160 mg (n = 18), Grade ≥3",0 (0) n (%)
same,"Vomiting, treatment-emergent adverse event","160 mg (n = 18), Grade ≥3",0 (0) n (%)
same,DLT description,160 mg QD,Grade 3 AST and ALT elevation
same,patients with DLT (grade 3 ALT and grade 3 AST elevation),160 mg QD,1 of 6
same,DLTs per total patients treated,160 mg QD (dose selected for phase II),1/18
same,patients with ≥grade 3 ALT elevations,"160 mg QD, the MTD",28%
same,patients with ≥grade 3 AST elevations,"160 mg QD, the MTD",11%
same,DLT description,180 mg QD,Grade 3 fatigue and anorexia; also recorded: Grade 3 AST and ALT elevation
same,DLTs per total patients treated,180 mg QD (intolerable dose level),2/5
same,patients who experienced DLTs,180 mg QD,2 patients
same,DLT description,200 mg QD,Grade 3 AST elevation; also recorded: Grade 3 ALT elevation
same,patients with adverse events that met DLT criteria,200 mg QD,2 patients
same,DLTs per total patients treated,200 mg QD (intolerable dose level),2/3
same,DLT description,210 mg QD,Grade 3 AST and ALT elevation; also recorded: Grade 2 ALT elevation and hyperbilirubinemia
same,DLTs per total patients treated,210 mg QD (intolerable dose level),2/7
same,patients who experienced DLTs,210 mg QD,2 patients
same,patients discontinued from the study due to toxicity,6 of 94 patients,6%
same,≥grade 2 toxicities,"20, 30, 40, 60 and 90 mg, 1-patient cohorts",no ≥grade 2 toxicities were documented
same,deaths while on study,94 patients,No patients died while on study
same,"ALT elevation (lab), treatment-emergent adverse event","<130 mg (n = 5), Grade 1–2",1 (20) n (%)
same,"AST elevation (lab), treatment-emergent adverse event","<130 mg (n = 5), Grade 1–2",1 (20) n (%)
same,"Alopecia, treatment-emergent adverse event","<130 mg (n = 5), Grade 1–2",1 (20) n (%)
same,"Decreased appetite, treatment-emergent adverse event","<130 mg (n = 5), Grade 1–2",0 (0) n (%)
same,"Diarrhea, treatment-emergent adverse event","<130 mg (n = 5), Grade 1–2",0 (0) n (%)
same,"Dysgeusia, treatment-emergent adverse event","<130 mg (n = 5), Grade 1–2",1 (20) n (%)
